Consider two compounds from patent US20240360135A1, “IMIDAZO[1,2-B]PYRIDAZINYL COMPOUNDS AND USES THEREOF” (Sumitomo Pharma Oncology, Inc., priority 2021, published 2024).

For orientation: IC50 means the concentration needed to halve the response being measured.

The structures appear in SMILES notation.

For one test, the target named is T1, PIM1 (Homo sapiens, UniProt P11309).
T1 construct: purchased Invitrogen PV3503
Description: RBC HotSpot kinase inhibition assay, PIM1. It counts as biochemical. How it is done: (§1) Reagents. Base Reaction Buffer: 20 mM Hepes (pH 7.5), 10 mM MgCl2, 1 mM EGTA, 0.01% Brij35, 0.02 mg/ml BSA, 0.1 mM Na3VO4, 2 mM DTT, 1% DMSO. The following kinases were used in the assay at the indicated concentrations:
(§2) The following substrates were used in combination with the indicated kinases in the assay at the indicated concentration:
(§3) No cofactors were added to any of the reactions.
(§4) • 1. Prepared substrate in freshly prepared Reaction Buffer. • 2. Delivered kinase into the substrate solution and gently mixed. • 3. Delivered test compound in 100% DMSO into the kinase reaction mixture by Acoustic technology (Echo550; nanoliter range), incubated for 20 minutes at room temperature. • 4. Delivered ^33P-ATP into the reaction mixture to initiate the reaction. • 5. Incubated for 2 hours at room temperature. • 6. Detected kinase activity by P81 filter-binding method.
(§5) The results of the RBC HotSpot™ kinase assay are set forth in Table 1, wherein “A” indicates an IC50<10 nM, “B” indicates an IC50 wherein 10 nM≤IC50≤100 nM, and “C” indicates an IC50>100 nM.

Another test has as its target T2, PIM2 (Homo sapiens, UniProt Q9P1W9).
T2 construct: purchased Invitrogen PR6347B
Description: RBC HotSpot kinase inhibition assay, PIM2. It counts as biochemical. As to the method: as §1, §2, §3, §4, §5

The next test concerns the target T3, PIM3 (Homo sapiens, UniProt Q86V86).
T3 construct: purchased Millipore 14-738
Description: RBC HotSpot kinase inhibition assay, PIM3. It counts as biochemical. As to the method:
as §1, §2, §3, §4, §5

The test system of test [1] is bleomycin-induced lung fibrosis. Kind of test: Bleomycin-induced lung fibrosis model in mice. To be noted: day 21. It counts as in vivo, C57BL/6J mice. How it is done: Overview. The most common animal model of pulmonary fibrosis is the bleomycin-induced lung fibrosis model in rodents. This model is commonly used to investigate biology and potential therapies for fibrotic diseases affecting the lung, such as idiopathic pulmonary fibrosis (IPF). Bleomycin, a cytotoxic drug, is administered to mice or rats, and causes direct cell injury triggered by DNA strand breaks, which leads to an overproduction of reactive oxygen species causing inflammation, pulmonary toxicity, activation of fibroblasts and subsequent fibrosis. Fibrosis is hallmarked by aberrant activation of lung epithelial cells and accumulation of fibroblasts and myofibroblasts with excessive production of extracellular matrix such as collagen.
Hydroxyproline is a major component of protein collagen, and plays a key role in the stability of the collagen triple helix. […]
Procedure. […] The snap frozen portion of the lung tissue was subjected to hydroxyproline quantification, which is used as a common biomarker of fibrosis. […] The histological sections were scored using a modified Ashcroft scale, the number of mononuclear cell aggregates and alveolar mixed infiltrates as well as the levels of collagen. The mice were weighed on day seven, fourteen, and twenty-one to monitor weight changes, and mortality and clinical observations were recorded daily. […]

T2 sequence (Q9P1W9 whole entry): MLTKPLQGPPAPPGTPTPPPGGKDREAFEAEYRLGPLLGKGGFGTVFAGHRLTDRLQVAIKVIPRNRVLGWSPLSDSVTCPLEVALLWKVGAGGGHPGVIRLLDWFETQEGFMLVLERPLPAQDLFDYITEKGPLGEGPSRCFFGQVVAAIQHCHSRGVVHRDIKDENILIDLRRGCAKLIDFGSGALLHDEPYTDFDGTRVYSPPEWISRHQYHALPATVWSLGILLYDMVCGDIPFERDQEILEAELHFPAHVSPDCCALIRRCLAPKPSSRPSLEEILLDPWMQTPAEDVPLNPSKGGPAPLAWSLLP
T1 sequence (P11309 whole entry): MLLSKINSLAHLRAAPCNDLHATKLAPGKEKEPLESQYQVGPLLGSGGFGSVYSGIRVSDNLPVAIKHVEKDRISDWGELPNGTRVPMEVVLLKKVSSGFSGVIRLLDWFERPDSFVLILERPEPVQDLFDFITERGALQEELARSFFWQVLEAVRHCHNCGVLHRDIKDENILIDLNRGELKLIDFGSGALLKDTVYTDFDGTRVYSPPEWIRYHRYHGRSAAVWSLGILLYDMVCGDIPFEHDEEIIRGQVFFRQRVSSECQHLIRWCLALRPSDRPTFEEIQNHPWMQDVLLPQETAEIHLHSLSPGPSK

As for `CC(C)(O)C12CCC(Nc3ccc4ncc(-c5cc(C6CC6)[nH]n5)n4n3)(CC1)CC2` [Compound 4, 2-(4-((3-(5-cyclopropyl-1H-pyrazol-3-yl)imidazo[1,2-b]pyridazin-6-yl)amino)bicyclo[2.2.2]octan-1-yl)propan-2-ol], the IC50 was less than 10 nM at PIM1, 10 to 100 nM at PIM2 and less than 10 nM on PIM3. For the same compound, the “reduction of hydroxyproline in lung tissue” value in test [1] (15 milligrams per kilogram twice a day) was “greatest and most statistically significant reduction”.
Regarding `Cc1cc(-c2cnc3ccc(NC45CCC(C(C)(C)O)(CC4)CC5)nn23)n[nH]1` [Compound 2, 2-(4-((3-(5-methyl-1H-pyrazol-3-yl)imidazo[1,2-b]pyridazin-6-yl)amino)bicyclo[2.2.2]octan-1-yl)propan-2-ol], the values for the IC50 at PIM1, on PIM2 and on PIM3 were less than 10 nM, more than 100 nM and less than 10 nM, respectively. The Ashcroft score entry in test [1] (20 milligrams per kilogram twice a day) was “significantly reduced”.
